The term IC90 denotes the point of the concentration-response curve where the effect stands at 90%.

In brackets after ≈: the same amount, converted by molar mass. Entries after “also recorded” stand apart in the source; their conditions may differ. Read-outs that look alike come from different tables or passages of the source.

The subject of data set [1] is HCTVM46 human colon carcinoma. The data set is described as follows: Multidrug-resistant HCT/VM46 xenograft (FIGS. 13, 14). The conditions noted are these: single agents or Compound 1 followed 24 hr later with Compound 2.
Method: (§1) Tumor response was determined by measurement of tumors with a caliper twice a week until the tumors reached a predetermined “target” size of 0.5 or 1.0 g. Tumor weights (mg) were estimated from the formula:
(§2) Tumor response end-point was expressed in terms of tumor growth delay (T-C value), defined as the difference in time (days) required for the treated tumors (T) to reach a predetermined target size compared to those of the control group (C).
(§3) A tumor is defined as “cured” when there is no detectable disease at the time of study termination (Day >75 days post-tumor implantation); the interval between study termination and the end of drug treatment always exceeded 10 times the volume doubling time of any particular tumor type.
Data set [2] in a line: Maximum tolerated dose / regimen in tumor-bearing mice. In kind it is in vivo, nude mice. The text has this: The maximum tolerated dose (MTD) is defined as the dose level immediately above which excessive toxicity (i.e. more than one death) occurred. […] Activity is described at the OD.
Data set [3] deals with HCT-116 human colon carcinoma cells. Briefly: Clonogenic cell colony-formation assay, stationary vs log phase cells. The conditions noted are these: for cytotoxicity against non-proliferating stationary cells: HCT-116, paclitaxel at concentrations as high as 162 nM; for fold less sensitive: cells in exponential growth (Day 2) vs stationary phase (Day 8) / fold more sensitive: cells in exponential growth (Day 2) vs stationary phase (Day 8): HCT-116 in vitro, figure legends.
Method: (§4) At the end of a 16 h drug exposure, monolayer cell cultures were dissociated by exposing the cells to 0.05% trypsin for 5 min at 37° C. Cells were resuspended in complete media (containing 10% FBS), counted with a Coulter Channelyzer, diluted and plated with 5 replicates per dilution, into plastic tissue culture petri dishes. The cells were incubated in a humidified atmosphere for 10 days at 37° C. Cell colonies were stained with crystal violet and those with >50 cells per colony were scored.

Data set [4] deals with advanced HCT116 human colon carcinoma. The following applies: dose 30 mg/kg/inj; IV, Q2D × 5.
Method: as §1, §2
The subject of data set [5] is A2780 human ovarian cancer cells. The data set is described as follows: Colony formation of A2780 cells, CDK inhibitor plus Compound 2. In kind it is cell-based. The following applies: 1.5 μM, 4 hour treatment.
The test system of data set [6] is HCT-116 human colon carcinoma cells.
Method: as §4
Data set [7] deals with HT-29 human colon carcinoma. Briefly: Advanced HT-29 xenograft, gemcitabine plus Compound 2. The class given is in vivo, nude mice. The text has this: The agent primarily kills cells undergoing DNA synthesis (S-phase) and also blocks the progression of cells through the G1/S-phase boundary.
For data set [8], the system named is Her-1 activated SAL-2 cancer cell line. In kind it is cell-based. The following applies: 20 hours exposure.
Method: FIG. 18A: Clonogenic survival of the SAL-2 cell line following exposure to paclitaxel for 20 hours at the indicated concentrations.
In data set [9] the test system is HCT116 human colon carcinoma. The following applies: Compound 2 125 mpk 24 h iv infusion; paclitaxel 24 mg/kg iv; alone or combined.
Method: as §1, §2
The subject of data set [10] is advance HCT116 human colon carcinoma. The following applies: dose 20 mg/kg/inj, IV, Q7D × 4.
Method: Paclitaxel was administered IV at 20 mg/kg/inj, Q7D×4.
as §1, §2, §3
Data set [11] concerns MCF-7 estrogen-dependent human breast carcinoma. Briefly: MCF-7 xenograft, tamoxifen plus Compound 2. The class given is in vivo, nude mice. The following applies: tamoxifen 40 mpk PO Q2D×14, Compound 2 po 100 mpk qd×10, two courses. How it is done:
Tamoxifen was administered PO, Q2D×14.
The majority of human breast cancers require estrogen for growth and tumor progression (estrogen-dependent). […] In order to assess the efficacy of the combined anti-cancer agents of the invention in a human breast cancer model, MCF-7 xenografts were grown in nude mice and treated as described herein.

[12] abbreviates: IC90 Log / IC90 Stationary, HCT116.
The mark [13] stands for this setting: read-out: IC90 Log (converted), log phase (proliferating) HCT116 cells, 16 h drug exposure.
Where [14] appears, read: read-out: IC90 Stationary, stationary phase (non-proliferating, Day 8) HCT116 cells, 16 h drug exposure.
[15] abbreviates: read-out: IC90 Log (converted), log phase (proliferating) HCT116 cells.
The mark [16] stands for this setting: read-out: IC90 Stationary, stationary phase (non-proliferating) HCT116 cells.

Turning to `C/C(=C\c1csc(C)n1)[C@@H]1C[C@@H]2O[C@]2(C)CCC[C@H](C)[C@H](O)[C@@H](C)C(=O)C(C)(C)[C@@H](O)CC(=O)N1` (relative stereo) [Compound 1, [1S-[1R*,3R*(E),7R*,10S*,11R*,12R*,16S*]]-7,11-dihydroxy-8,8,10,12,16-pentamethyl-3-[1-methyl-2-(2-methyl-4-thiazolyl)ethenyl]-4-aza-17-oxabicyclo[14.1.0]heptadecane-5,9-dione], in [1], the tumor cure result is “did not induce tumor cure”. Further, the log cell kill in data set [1] (maximum tolerated regimens, q4d×3) came to 1.6 LCK. The maximum tolerated regimen was found to be 15 mg/kg in data set [2] (HCTVM46 study FIG. 13, single agents, q4d×3) and 10 mg/kg in data set [2] (HCTVM46 study FIG. 14, Compound 1 iv q4d×3, Compound 2 ip q4d×3, single agents).
As for `O=c1[nH]cc(F)c(=O)[nH]1` [5-Fluorouracil, 5-fluorouracil], the “cytotoxicity against non-proliferating stationary cells” value in data set [3] is given as “essentially ineffective”. Besides, the “Non-proliferative cells selectivity ratio (fold)” value in [3] (setting [12]) is reported as under 0.03 fold. Moreover, in [3] (log phase HCT116 cells), the “IC90 Log” value was over 162 μg/ml. In addition, the “IC90 Stationary” value in data set [3] (stationary phase HCT116 cells) was 4.6 µg/mL (≈ 35.4 µM).
In [2] (CPT-11 IV (Q2D × 5), HCT116 study), `CCc1c2c(nc3ccc(OC(=O)N4CCC(N5CCCCC5)CC4)cc13)-c1cc3c(c(=O)n1C2)COC(=O)[C@]3(O)CC` [CPT-11] registered an MTD of about 30 mg/kg/inj. In addition, in data set [4], the “Tumor Response CR (%)” value was 0%, the “Tumor Response LCK” value was found to be 1.5 and the “Tumor Response PR (%)” value is 50%.
With `CC(O)(CS(=O)(=O)c1ccc(F)cc1)C(=O)Nc1ccc(C#N)c(C(F)(F)F)c1` (centres unmarked) [Casodex®, bicalutamide], the “maximum tolerated doses and regimens” value in data set [2] (Pca-2b-AI study, Compound 2 po q1D×10, Casodex® po q1D×4) came to 150 mpk.
With `CCCCS(=O)(=O)N1Cc2cc(C#N)ccc2N(Cc2c[nH]cn2)C[C@H]1Cc1ccccc1` [Compound 3, (R)-4-(butylsulfonyl)-7-cyano-2,3,4,5-tetrahydro-1-(1H-imidazol-4-ylmethyl)-3-(phenylmethyl)-1H-1,4-benzodiazepine], the “Non-proliferative cells selectivity ratio (fold)” value in [3] (setting [12]) turned out to be 181.0 fold. Moreover, the IC90 is 65000 nM in data set [3] (setting [13]) and 360 nM in [3] (setting [14]).
Consider `COCCCS(=O)(=O)N1Cc2cc(C#N)ccc2N(Cc2c[nH]cn2)C[C@H]1Cc1ccccc1` [Compound 4, (R)-4-(3-methoxypropylsulfonyl)-7-cyano-2,3,4,5-tetrahydro-1-(1H-imidazol-4-ylmethyl)-3-(phenylmethyl)-1H-1,4-benzodiazepine], for which the “fold less sensitive: cells in exponential growth (Day 2) vs stationary phase (Day 8)” value in data set [3] was about 91.2 fold. The “Non-proliferative cells selectivity ratio (fold)” value in data set [3] (setting [12]) worked out at 86.9 fold. Further, the IC90 in [3] (setting [13]) was 91200 nM; in data set [3] (setting [14]) it was 1050 nM.
With `N#Cc1ccc2c(c1)CN(S(=O)(=O)c1ccc(Br)s1)[C@H](Cc1ccccc1)CN2Cc1c[nH]cn1` [Compound 5, (R)-4-[(5-bromo-2-thienyl)sulfonyl]-7-cyano-2,3,4,5-tetrahydro-1-(1H-imidazol-4-ylmethyl)-3-(phenylmethyl)-1H-1,4-benzodiazepine], the “Non-proliferative cells selectivity ratio (fold)” value in [3] (setting [12]) is reported as 78.4 fold. In addition, the IC90 in data set [3] (setting [13]) was 84700 nM; in data set [3] (setting [14]) it was 1080 nM.
Regarding `N#Cc1ccc2c(c1)CN(S(=O)(=O)N1CCCCC1)[C@H](Cc1ccccc1)CN2Cc1c[nH]cn1` [Compound 6, (R)-7-cyano-2,3,4,5-tetrahydro-1-(1H-imidazol-4-ylmethyl)-3-(phenylmethyl)-4-(1-piperidinylsulfonyl)-1H-1,4-benzodiazepine], the “fold less sensitive: cells in exponential growth (Day 2) vs stationary phase (Day 8)” value in [3] is listed as about 67 fold. Besides, the “Non-proliferative cells selectivity ratio (fold)” value in data set [3] (setting [12]) is on record as 64.2 fold. For the same compound, the 90% effect concentration (IC90) in [3] (setting [13]) was 66800 nM; in [3] (setting [14]), 1040 nM.
For the compound `COc1ccc(S(=O)(=O)N2Cc3cc(C#N)ccc3N(Cc3c[nH]cn3)C[C@H]2Cc2ccccc2)cc1` [Compound 7, (R)-7-cyano-2,3,4,5-tetrahydro-1-(1H-imidazol-4-ylmethyl)-4-[(4-methoxyphenyl)sulfonyl]-3-(phenylmethyl)-1H-1,4-benzodiazepine], the “Non-proliferative cells selectivity ratio (fold)” value in data set [3] (setting [12]) came to 2.7 fold. Besides, the IC90 in data set [3] (setting [13]) is 26000 nM; in data set [3] (setting [14]) it was 9600 nM.
For `CC(C)(C)c1cnc(CSc2cnc(NC(=O)C3CCNCC3)s2)o1` [Compound 9, N-[5-[[[5-(1,1-dimethylethyl)-2-oxazolyl]methyl]thio]-2-thiazolyl]-4-piperidinecarboxamide], the “effect of single agent” value in [5] is “no effect dose”.
Regarding `C/C(=C\c1csc(C)n1)[C@@H]1C[C@@H]2O[C@]2(C)CCC[C@H](C)[C@H](O)[C@@H](C)C(=O)C(C)(C)[C@@H](O)CC(=O)O1` [Epothilone B, epothilone B], in data set [3], the “fold more sensitive: cells in exponential growth (Day 2) vs stationary phase (Day 8)” value is on record as over 83 fold. Further, the “Non-proliferative cells selectivity ratio (fold)” value in data set [3] (setting [12]) was under 0.01 fold. The IC90 in [3] (setting [15]) is 1.3 nM; in data set [3] (setting [16]) it was over 108 nM. In [6], the “cytotoxicity against non-proliferating stationary cells” value is “essentially ineffective”.
`Nc1ccn([C@@H]2O[C@H](CO)[C@@H](O)C2(F)F)c(=O)n1` [Gemcitabine] yielded an MTD in data set [2] (gemcitabine IV, Q2D×4, HT-29 study) of 36 mg/kg/inj. The values for the response rate in [7] (single agent gemcitabine 6 mg/kg/inj (so in the source)) and in data set [7] (single agent gemcitabine 24 mg/kg/inj) were 25% and 0%, respectively.
Take `CC(=O)O[C@H]1C(=O)[C@@]2(C)[C@H]([C@H](OC(=O)c3ccccc3)[C@]3(O)C[C@H](OC(=O)[C@H](O)[C@@H](NC(=O)c4ccccc4)c4ccccc4)C(C)=C1C3(C)C)[C@]1(OC(C)=O)CO[C@@H]1C[C@@H]2O` [Paclitaxel, paclitaxel]: the “sensitivity of exponentially growing SAL2 cells to single agent” value in [8] is “relatively resistant”. Moreover, in data set [3], the “Non-proliferative cells selectivity ratio (fold)” value is on record as under 0.1 fold, the “cytotoxicity against non-proliferating stationary cells” value is “essentially ineffective; also recorded: completely non-toxic” and the “fold more sensitive: cells in exponential growth (Day 2) vs stationary phase (Day 8)” value is listed as over 10 fold. In addition, the IC90 in data set [3] (setting [15]) is 17.8 nM. The IC90 in data set [3] (setting [16]) is over 162 nM. For the same compound, the log cell kill in data set [9] worked out at 0.6 LCK. The compound also yielded a maximum tolerated regimen in data set [2] (Pat-7 study, paclitaxel iv q3d×3, Compound 2 ip q3d×3) of 36 mg/kg. Besides, in [10], the “Tumor Response CR (%)” value is 0%, the “Tumor Response LCK” value was found to be 2.5 and the “Tumor Response PR (%)” value was determined as 20%. In addition, the “Tumor Response Cures (%)” value in data set [10] (Day 77) is listed as 0%.
As for `CC/C(=C(\c1ccccc1)c1ccc(OCCN(C)C)cc1)c1ccccc1` [Tamoxifen], the “tumor remission / cures” value in data set [11] is reported as “no cures were observed”. Besides, the “effect on tumor growth” value in data set [11] (alone or combined) was “markedly more active”.

Values taken from US6537988B2, “Synergistic methods and compositions for treating cancer” (Bristol-Myers Squibb Company, priority 2000, dated 2003).
